Laboratory results published in patent US6900202B2, “Di-substituted imineheterocyclic compounds” (priority 2000, dated 2005).

Assays:
[1] = biological target: T1, α1β1γδ subtype of nicotinic acetylcholine receptors (Rattus norvegicus, UniProt P18916+P25108+P25109+P25110); assay: biochemical; type: binding
T1 construct: The centrifugation at 100,000×G for 60 minutes at 4° C. yielded the rat muscle extract as supernatant
Source text: (§1) The methods for evaluating the binding capabilities of the compounds against nicotinic acetylcholine receptors are different by subtypes of receptors. The binding capabilities of the compounds at α4β2 nicotinic acetylcholine receptors are examined using rat brain membrane obtained from whole homogenized brain, and determining the inhibiting rate of the compounds against [^3H]-cytisine binding to said brain membrane. Furthermore, the binding capabilities of the compounds at α1β1γδ nicotinic acetylcholine receptors are examined using homogenized rat muscle, and determining the inhibiting rate of the compounds against [^3H]-α-bungarotoxin binding to said muscle membrane.
(§2) Binding Assays at α1β1γδ Subtype of Nicotinic Acetylcholine Receptors
(§3) The affinity of the compounds of the present invention to α1β1γδ subtype of nicotinic acetylcholine receptors was measured by the following method, which was modified method described by Garcha H. S., Thomas P., Spivak C.
(§4) (1) Preparation of Rat Skeletal Muscles Containing α1β1γδ Subtype of Nicotinic Acetylcholine Receptors
(§5) The substantially same animals described in the Biological Experiment 1 were used.
(§6) The isolation of α1β1γδ subtype of nicotinic acetylcholine receptors was performed as follow. That is, rat posterior skeletal muscles were isolated just after sacrificed by decapitation, washed with ice-cooled saline solution and then frozen at −80° C. with liquid nitrogen and stored till using. After thawing the frozen muscles, tissue was homogenized (40% w/v) with buffer solution [2.5 mM of sodium phosphate buffer (pH:7.2), 90 mM of NaCl, 2 mM of KCl, 1 mM of EDTA, 2 mM of benzamidine, 0.1 mM of benzethonium chloride, 0.1 mM of PMSF, 0.01% of sodium azide] in Waring blender [Waring blender 34BL97; WARING PRODUCTS DIVISION DYNAMICS CORPORATION OF AMERICA) for 60 seconds. The homogenate were centrifuged under 20,000×G for 60 minutes at 4° C. The supernatant was separated and the resulting pellet was added to the same buffer (1.5 ml/g wet weight), and homogenized under the same conditions. Triton X100 (2% w/v) was added and the mixture was stirred for 3 hours at 4° C. The centrifugation at 100,000×G for 60 minutes at 4° C. yielded the rat muscle extract as supernatant. This was stored at 4° C. for up to 4 weeks, and used for binding assays at receptors.
(§7) (2) Experiments of α1β1γδ Subtype of Nicotinic Acetylcholine Receptors Binding
(§8) Receptors binding experiments were performed as follow. That is, the extract of rat muscle containing 600-900 μg of protein was added to test tubes containing test compounds and incubated for 15 minutes at 37° C. Then, to this mixture was added 1 nM of [^3H]-α-bungarotoxin (α-Bgt) and further incubated for 2 hours. The samples were isolated by vacuum filtration onto Whatman GF/B filters, which were prerinsed with 0.5% polyethylenimine just prior to sample filtration, using Brandel multi manifold cell harvester. The filters were rapidly rinsed with washing solution (10 mM of KH2PO4, 150 mM of NaCl, pH 7.2, room temperature) (5×1 ml). The filters were counted in 3 ml of clearsol I (Nacalai Tesque Inc.). The determination of nonspecific binding was incubated in the presence of 1 μM α-Bgt. […] In the receptor binding experiments, said buffer solution was added for adjusting the final concentration of BSA to be 0.05%.
(§9) The analyses of the experimental results were conducted by as described in the Biological Experiment 1.

[2] = biological target: T2, α4β2 subtype of nicotinic acetylcholine receptors (Rattus norvegicus, UniProt P09483+P12390); assay: Binding assay at α4β2 subtype of nicotinic acetylcholine receptors ([3H]-cytisine, rat brain membrane)
T2 construct: examined using rat brain membrane obtained from whole homogenized brain; from tissue; host or cells: whole brain membranes of Fischer-344 male rats
Source text: as §1
Binding Assays at α4β2 Subtype of Nicotinic Acetylcholine Receptors
The affinity of the compounds of the present invention to α4β2 subunit of nicotinic acetylcholine receptors was performed by the following method, which was modified method described by Pabreza L. A., Dhawan S. & Kellar K. J., Mol. Pharm., 39, 9-12 (1990), and by Anderson D. J. & Arneric S. P., Eur. J. Pharm., 253, 261-267 (1994).
(1) Preparation of Rat Brain Membrane Containing α4β2 subtype of Nicotinic Acetylcholine Receptors
Fischer-344 strain male rats (body weight: 200-240 g; 9 weeks old) obtained from Charles River Japan were used. Rats were housed in the breeding cage controlled of the room temperature at 23±1° C., and the humidity of 55±5% for 1 to 4 weeks. Rats (3 to 4 rats per a cage) were housed with lights on for 12 hours daily (from 7:00 to 19:00), and allowed free access to food and water.
Preparation of rat brain membrane containing α4β2 subtype of nicotinic acetylcholine receptors was performed as follow. That is, rat brains were isolated just after sacrificed by decapitation, washed with ice-cooled saline solution and then frozen at −80° C. with liquid nitrogen and stored till using. After thawing the frozen brain, the brain was homogenized in 10 volumes of buffer solution (50 mM of Tris-HCl, 120 mM of NaCl, 5 mM of KCl, 1 mM of MgCl2, 2mM of CaCl2; pH 7.4; 4° C.) using homogenizer (HG30, Hitachi Kohki Ltd.) for 30 seconds, and the homogenate were centrifuged under 1,000×G for 10 minutes at 4° C. The resulting supernatant was separated and the pellet was homogenized again with half volume of aforementioned prior buffer solution and centrifuged under the same conditions. Combined supernatant was further centrifuged under 40,000×G for 20 minutes at 4° C. The pellet was suspended in buffer solution and used for binding assays at receptors.
(2) Experiments of α4β2 Subtype of Nicotinic Acetylcholine Receptors Binding
Suspensions of membrane pellets containing 400-600 μg of protein were added to test tubes containing test compounds and [^3H]-cytisine (2 nM) in a final volume of 200 μl and incubated for 75 minutes in ice-cooled bath. The samples were isolated by vacuum filtration onto Whatman GF/B filters, which were prerinsed with 0.5% polyethylenimine just prior to sample filtration, using Brandel multi manifold cell harvester. The filters were rapidly washed with buffer solution (3×1 ml). The filters were counted in 3 ml of clearsol I (Nacalai Tesque Inc.).
The analyses of the experimental results were conducted by using the Accufit Competition Program (Beckman Ltd.).

[3] = biological target: T3, α1β1γδ subtype of nicotinic acetylcholine receptors (Rattus norvegicus, UniProt P25108); assay: biochemical; type: binding; conditions: % of control binding remaining
T3 construct: The centrifugation at 100,000×G for 60 minutes at 4° C. yielded the rat muscle extract as supernatant
Source text: as §1, §2, §3, §4, §5, §6, §7, §8, §9

T2 sequence (P09483 31-630): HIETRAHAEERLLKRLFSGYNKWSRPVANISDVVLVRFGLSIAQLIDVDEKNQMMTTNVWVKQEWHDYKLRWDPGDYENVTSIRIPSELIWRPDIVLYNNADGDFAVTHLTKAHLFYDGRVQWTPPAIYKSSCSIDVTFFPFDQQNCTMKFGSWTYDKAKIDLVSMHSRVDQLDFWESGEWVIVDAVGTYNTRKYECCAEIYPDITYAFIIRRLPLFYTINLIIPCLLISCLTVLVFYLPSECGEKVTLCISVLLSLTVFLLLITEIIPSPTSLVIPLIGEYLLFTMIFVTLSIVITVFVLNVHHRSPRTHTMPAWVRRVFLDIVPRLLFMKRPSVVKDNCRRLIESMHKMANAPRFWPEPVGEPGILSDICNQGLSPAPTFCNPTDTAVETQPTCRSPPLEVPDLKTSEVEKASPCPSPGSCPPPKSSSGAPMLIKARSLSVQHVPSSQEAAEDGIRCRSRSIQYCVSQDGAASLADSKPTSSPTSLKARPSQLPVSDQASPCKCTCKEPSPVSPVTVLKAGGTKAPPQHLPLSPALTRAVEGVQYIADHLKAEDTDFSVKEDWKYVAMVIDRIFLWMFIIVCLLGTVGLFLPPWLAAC
T2 sequence (P12390 25-500): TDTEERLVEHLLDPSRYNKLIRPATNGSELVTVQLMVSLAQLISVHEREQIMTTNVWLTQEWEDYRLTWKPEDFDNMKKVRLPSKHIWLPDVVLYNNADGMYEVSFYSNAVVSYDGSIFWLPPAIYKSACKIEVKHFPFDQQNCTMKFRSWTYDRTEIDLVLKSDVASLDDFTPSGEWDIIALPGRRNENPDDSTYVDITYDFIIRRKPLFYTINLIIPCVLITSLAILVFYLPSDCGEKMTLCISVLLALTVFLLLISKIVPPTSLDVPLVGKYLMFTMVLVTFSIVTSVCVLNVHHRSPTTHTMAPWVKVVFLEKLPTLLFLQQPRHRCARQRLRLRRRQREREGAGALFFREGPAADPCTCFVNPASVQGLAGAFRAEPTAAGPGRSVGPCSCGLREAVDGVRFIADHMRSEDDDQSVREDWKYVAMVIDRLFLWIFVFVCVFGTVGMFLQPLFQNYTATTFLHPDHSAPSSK
T1 sequence (P25108 21-457): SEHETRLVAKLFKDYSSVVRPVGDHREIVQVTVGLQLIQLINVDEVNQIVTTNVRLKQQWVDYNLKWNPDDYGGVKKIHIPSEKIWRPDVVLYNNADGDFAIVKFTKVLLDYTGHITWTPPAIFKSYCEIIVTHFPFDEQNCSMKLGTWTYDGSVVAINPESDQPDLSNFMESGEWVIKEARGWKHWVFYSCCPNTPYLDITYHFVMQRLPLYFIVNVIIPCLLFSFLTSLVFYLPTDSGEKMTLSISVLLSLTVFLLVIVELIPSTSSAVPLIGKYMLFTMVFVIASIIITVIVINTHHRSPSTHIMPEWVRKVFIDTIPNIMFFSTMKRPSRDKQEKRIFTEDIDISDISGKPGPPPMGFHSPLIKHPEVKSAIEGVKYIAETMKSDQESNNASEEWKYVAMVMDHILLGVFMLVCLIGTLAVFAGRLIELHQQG
T1 sequence (P25109 24-501): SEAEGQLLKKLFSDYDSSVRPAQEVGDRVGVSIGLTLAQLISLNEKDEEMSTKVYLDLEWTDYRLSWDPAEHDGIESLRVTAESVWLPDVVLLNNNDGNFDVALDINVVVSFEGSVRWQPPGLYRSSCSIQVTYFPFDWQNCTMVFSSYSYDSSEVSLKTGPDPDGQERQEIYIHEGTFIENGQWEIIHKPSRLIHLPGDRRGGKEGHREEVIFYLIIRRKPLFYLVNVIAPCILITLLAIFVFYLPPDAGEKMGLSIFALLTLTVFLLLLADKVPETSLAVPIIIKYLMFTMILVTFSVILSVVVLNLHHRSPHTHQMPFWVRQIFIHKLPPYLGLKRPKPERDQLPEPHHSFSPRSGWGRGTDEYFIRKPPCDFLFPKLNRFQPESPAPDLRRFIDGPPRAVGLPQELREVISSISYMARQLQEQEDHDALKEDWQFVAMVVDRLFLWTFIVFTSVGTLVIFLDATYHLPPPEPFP
T1 sequence (P25110 22-517): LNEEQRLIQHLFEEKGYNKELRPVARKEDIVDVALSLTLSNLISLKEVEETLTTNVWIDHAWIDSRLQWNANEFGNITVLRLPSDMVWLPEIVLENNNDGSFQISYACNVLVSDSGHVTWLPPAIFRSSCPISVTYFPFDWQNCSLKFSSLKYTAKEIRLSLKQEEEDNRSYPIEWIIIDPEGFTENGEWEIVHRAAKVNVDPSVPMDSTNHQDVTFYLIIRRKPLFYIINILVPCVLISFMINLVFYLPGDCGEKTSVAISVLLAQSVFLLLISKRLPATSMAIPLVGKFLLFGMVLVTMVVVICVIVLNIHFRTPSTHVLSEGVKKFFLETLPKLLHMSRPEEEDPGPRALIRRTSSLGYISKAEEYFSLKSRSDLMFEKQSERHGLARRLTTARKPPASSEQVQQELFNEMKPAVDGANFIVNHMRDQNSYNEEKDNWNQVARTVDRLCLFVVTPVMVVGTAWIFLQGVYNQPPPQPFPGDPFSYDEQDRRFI
T3 sequence (P25108 21-457): as the sequence (P25108 21-457) above
T3 sequence (P25109 24-501, further chain): as the sequence (P25109 24-501) above
T3 sequence (P25110 22-517, further chain): as the sequence (P25110 22-517) above

SMILES | Ki [1] [nM] | Ki [2] [nM] | control % of [3H]-α-Bgt binding at 100 μM of test compound ([3]; 100 μM test compound) [%] | control % of [3H]-α-Bgt binding at 1,000 μM of test compound ([3]; 1,000 μM test compound) [%]
Clc1ccc(C/N=C2\SCCN2Cc2ccc(Cl)nc2)cn1 [Compound 1, 3-(6-chloro-3-pyridyl)methyl-2-[(6-chloro-3-pyridyl)methyl]iminothiazolidine] | 420000 | 16 | – | –
Clc1ccc(C/N=C2\OCCCN2Cc2ccc(Cl)nc2)cn1 [Compound 2, 3-(6-chloro-3-pyridyl)methyl-2-[(6-chloro-3-pyridyl)-methyl]imino-3,4,5,6-tetrahydro-2H-1,3-oxazine] | – | 22 | 95 | 56
Clc1ccc(C/N=c2\sccn2Cc2ccc(Cl)nc2)cn1 [Compound 8, 3-(6-chloro-3-pyridyl)methyl-2-[(6-chloro-3-pyridyl)methyl]imino-2,3-dihydrothiazole] | 840000 | 42 | – | –
Cn1ccn(Cc2ccc(Cl)nc2)c1=N [Compound 13, 1-(6-chloro-3-pyridyl)methyl-2-imino-3-methyl-2,3-dihydroimidazole] | 320000 | 15 | – | –
